Assay results from PMC9980389, “Structural and biochemical insights into PsEst3, a new GHSR-type esterase obtained from Paenibacillus sp. R4” (IUCrJ, 2023).

Key:
[1] = target: T1, PsEst3 (Paenibacillus sp. R4, UniProt Z9AKP1HDK8); experiment: fluorescein diester hydrolysis, fluorescence […] nm; format: biochemical; conditions: 20 mM Tris-HCl pH 8.0, 150 mM NaCl, 30 °C, 0.1 µM substrate, 10% 2-ethoxyethanol, 0.005% CHAPS
T1 construct: pET-22b in E. coli BL21(DE3)/pPsyGroELS, 6xHis tag kept (Ni-NTA, SEC); residues 4-258 built, including part of the His tag
T1 sequence (Z9AKP1HDK8 1-257): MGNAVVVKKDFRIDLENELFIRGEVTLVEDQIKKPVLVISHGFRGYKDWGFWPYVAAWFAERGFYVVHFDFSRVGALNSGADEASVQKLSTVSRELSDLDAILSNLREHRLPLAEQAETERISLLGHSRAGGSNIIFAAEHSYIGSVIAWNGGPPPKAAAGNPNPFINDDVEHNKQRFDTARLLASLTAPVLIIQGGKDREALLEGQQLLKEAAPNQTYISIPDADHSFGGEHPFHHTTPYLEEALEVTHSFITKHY

[2] = target: T1, PsEst3; experiment: inhibition of pNP-C2 hydrolysis, absorbance […] nm; format: biochemical; conditions: substrate pNP-C2

Row | % decrease in activity at 2.4 mM [2] | Compound | fluorescein diester hydrolysis, fluorescence 492/512 nm [1]
1 | – | CCCC(=O)Oc1ccc2c(c1)Oc1cc(OC(=O)CCC)ccc1C21OC(=O)c2ccccc21 [fluorescein-diC4, fluorescein dibutyrate] | fluorescein diesters (fluorescein-diC4, fluorescein-diC8 and fluorescein-diC12) were measured
2 | ~ 40% | O=C(O)/C=C\C(=O)O [maleic acid] | –
